# According to the supplement of paper PMC10307832:
# How the values were obtained:
# Experiment in all cases: relative viability (nuclei count vs DMSO), 5 days (fraction); higher = more cells survive
# [1] = compound: C1/C(=C\C2=CC=CS2)/C(=O)/C(=C/C3=CC=CS3)/C1 + CC(=O)c1c(C)c2cnc(Nc3ccc(N4CCNCC4)cn3)nc2n(C2CCCC2)c1=O [Palbociclib] (partner 0.5 µM)
# How it was run: (§1)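 Values are medians from duplicate plates. Each reflects relative viability, defined as the nuclei count of treated wells over that of vehicle wells. Lung cancer cell lines in 1536-well plates were pin-tool dosed one day after seeding with one drug alone or with a fixed anchor-drug dose plus five library-drug doses (not always all listed) in √10 steps, then fixed, stained and imaged at 4× after 5 days.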
# [2] = compound: C1=CC(=CC=C1C2=CC(=C(S2)NC(=O)N)C(=O)N)F [TPCA-1] + CC(C)C[C@H](NC(=O)[C@H](Cc1ccccc1)NC(=O)c1cnccn1)B(O)O [Bortezomib] (partner 0.002 µM)
# How it was run: as §1
# [3] = compound: C1=CC(=CC=C1C2=CC(=C(S2)NC(=O)N)C(=O)N)F [TPCA-1] + COc1cc2c(Oc3ccc(NC(=O)C4(C(=O)Nc5ccc(F)cc5)CC4)cc3F)ccnc2cc1OCCCN1CCOCC1 [Foretinib] (partner 0.25 µM)
# How it was run: as §1
# [4] = compound: C1=CC(=CC=C1C2=CC(=C(S2)NC(=O)N)C(=O)N)F [TPCA-1] + CS(=O)(=O)CCNCc1ccc(-c2ccc3ncnc(Nc4ccc(OCc5cccc(F)c5)c(Cl)c4)c3c2)o1 [Lapatinib] (partner 2 µM)
# How it was run: as §1
Cell Line,relative viability ([1]; first compound 0.2 µM),relative viability ([1]; first compound 0.6325 µM),relative viability ([1]; first compound 2 µM),relative viability ([1]; first compound 6.325 µM),relative viability ([1]; first compound 20 µM),relative viability ([2]; first compound 0.04 µM),relative viability ([2]; first compound 0.1265 µM),relative viability ([2]; first compound 0.4 µM),relative viability ([2]; first compound 1.265 µM),relative viability ([2]; first compound 4 µM),relative viability ([3]; first compound 0.04 µM),relative viability ([3]; first compound 0.1265 µM),relative viability ([3]; first compound 0.4 µM),relative viability ([3]; first compound 1.265 µM),relative viability ([3]; first compound 4 µM),relative viability ([4]; first compound 0.04 µM),relative viability ([4]; first compound 0.1265 µM),relative viability ([4]; first compound 0.4 µM),relative viability ([4]; first compound 1.265 µM),relative viability ([4]; first compound 4 µM)
HCC-15,0.721,0.734,0.824,0.682,0.73,1.21,0.944,1.06,1.01,0.817,1.09,0.919,1.06,0.96,0.77,0.942,0.856,0.908,0.819,0.52
HCC-78,0.486,0.457,0.534,–,0.451,0.437,0.439,0.531,0.27,0.281,0.611,0.52,0.608,0.65,0.541,0.628,0.35,0.718,0.672,0.0936
HCC-366,0.413,0.388,0.454,0.358,0.43,1.07,0.94,1.13,0.92,0.647,0.921,0.86,0.922,0.851,0.654,1.06,1.01,1.02,1.02,0.217
HCC-827,0.487,0.481,0.522,0.463,0.525,1.06,1.06,1.09,0.964,0.89,1.14,1.03,1.06,0.873,0.443,0.193,0.198,0.188,0.166,0.132
HOP-62,0.486,0.499,0.465,0.41,0.473,0.641,0.707,0.832,0.738,0.57,1.19,1.09,1.17,1.06,1.06,1.23,0.901,1.02,0.882,0.873
LC-2-ad,0.526,0.483,0.488,0.333,0.481,1.11,1.01,0.94,1.04,0.371,1.06,0.88,0.818,0.845,0.552,0.986,0.933,1.02,0.953,0.186
LCLC-97TM1,0.255,0.228,0.203,0.21,0.196,0.654,0.654,0.608,0.475,0.0995,1.11,0.877,0.94,0.633,0.587,1.47,0.719,1.3,0.852,0.518
LOU-NH91,0.564,0.584,0.523,0.507,0.55,0.508,0.514,0.502,0.523,0.574,0.984,0.887,0.971,0.97,0.803,0.796,0.717,0.753,0.779,0.596
LU99A,0.402,0.395,0.481,0.368,0.38,1.32,1.13,1.01,0.971,0.48,0.917,0.745,0.78,0.636,0.436,1.02,0.872,1.11,0.81,0.426
LXF-289,0.648,0.615,0.567,0.577,0.56,1.03,0.941,0.987,1.01,0.781,0.972,0.966,0.89,0.981,0.692,0.914,0.927,0.807,0.831,0.726
NCI-H23,0.553,0.557,0.551,0.478,0.462,1.12,0.935,0.909,1.11,0.512,0.947,0.934,0.935,1.08,0.867,1.06,0.96,1.05,1,0.349
NCI-H322M,0.517,0.508,0.529,0.431,0.468,1.18,1.17,1.36,1.24,1.27,1.2,0.973,1.01,0.998,0.633,0.646,0.612,0.589,0.65,0.492
NCI-H460,0.201,0.174,0.224,0.244,0.146,1.11,0.877,1.09,0.839,0.493,1.05,0.918,1.07,1.05,0.857,1.26,0.982,1.12,0.9,0.335
NCI-H520,0.256,0.251,0.223,–,0.227,0.82,0.607,0.717,0.453,0.252,0.768,0.816,0.753,0.676,0.742,0.905,0.752,0.879,0.756,0.168
NCI-H647,0.441,0.442,0.378,0.398,0.405,1.26,0.809,0.954,0.751,0.418,1.2,1.14,1.11,1.16,0.782,1.34,0.919,1.06,0.671,0.466
NCI-H650,0.431,0.33,0.345,0.322,0.356,0.877,0.898,0.923,0.326,0.554,1.01,0.947,1.03,0.729,0.858,1.03,1.05,0.93,0.357,0.487

Cell Line,relative viability ([1]; first compound 0.2 µM),relative viability ([1]; first compound 0.6325 µM),relative viability ([1]; first compound 2 µM),relative viability ([1]; first compound 6.325 µM),relative viability ([1]; first compound 20 µM),relative viability ([2]; first compound 0.04 µM),relative viability ([2]; first compound 0.1265 µM),relative viability ([2]; first compound 0.4 µM),relative viability ([2]; first compound 1.265 µM),relative viability ([2]; first compound 4 µM),relative viability ([3]; first compound 0.04 µM),relative viability ([3]; first compound 0.1265 µM),relative viability ([3]; first compound 0.4 µM),relative viability ([3]; first compound 1.265 µM),relative viability ([3]; first compound 4 µM),relative viability ([4]; first compound 0.04 µM),relative viability ([4]; first compound 0.1265 µM),relative viability ([4]; first compound 0.4 µM),relative viability ([4]; first compound 1.265 µM),relative viability ([4]; first compound 4 µM)
NCI-H661,0.405,0.403,0.41,0.394,0.421,0.651,0.662,0.986,0.753,0.501,1.08,1.03,1.06,0.96,0.888,0.632,0.448,0.562,0.522,0.387
NCI-H727,0.632,0.678,0.61,–,0.669,1.07,0.707,0.923,0.674,0.696,1.01,0.922,0.738,0.788,0.829,0.83,0.772,0.694,0.815,0.738
NCI-H838,0.225,0.212,0.211,0.203,0.194,1.2,0.594,0.876,0.35,0.739,1.06,0.99,0.918,0.843,0.769,1.14,0.864,1.12,0.598,0.565
NCI-H1355,0.381,0.379,0.408,0.34,0.382,1.25,1.09,1.15,1.01,0.984,0.991,0.837,0.977,0.932,0.705,1.15,0.879,0.956,0.818,0.719
NCI-H1437,0.322,0.314,0.282,0.307,0.336,0.586,0.496,0.577,0.367,0.504,1.31,1.4,1.25,1.32,1.41,0.888,0.764,0.85,0.742,0.604
NCI-H1650,0.312,0.325,0.351,0.373,0.333,0.26,0.219,0.204,0.203,0.208,1.15,–,1.36,1.14,0.858,0.945,0.713,0.921,0.791,0.219
NCI-H1651,0.48,0.554,0.563,0.47,0.527,0.909,0.927,0.917,0.891,0.649,0.862,0.656,0.801,0.794,0.735,1.02,0.746,0.951,0.848,0.8
NCI-H1666,0.68,0.645,0.624,0.521,0.672,0.808,0.807,0.996,0.767,0.8,0.961,0.942,0.931,0.962,0.997,0.539,0.569,0.865,0.707,0.631
NCI-H1734,0.386,0.336,0.346,0.225,0.359,1.02,0.816,1.12,0.938,0.554,0.897,0.742,0.917,0.818,0.732,1.21,0.946,1.13,1.02,0.623
NCI-H1755,0.432,0.454,0.458,0.333,0.409,0.948,0.9,1.05,0.881,0.832,0.914,0.895,0.923,0.832,0.669,0.991,0.984,1.02,0.898,0.689
NCI-H1915,0.507,0.55,0.515,0.459,0.5,0.949,0.961,0.954,0.664,0.886,1.17,1.06,1.15,1.07,0.872,1.06,0.984,1.03,0.875,0.813
NCI-H1975,0.661,0.547,0.426,0.506,0.549,0.327,0.417,0.321,0.437,0.26,0.949,0.919,0.995,0.97,0.532,0.941,0.75,0.906,0.714,0.494
NCI-H1993,0.643,0.639,0.595,0.562,0.646,1.13,–,1.14,1.28,0.836,0.798,0.644,0.75,0.663,0.676,0.855,–,0.735,0.765,1.11
NCI-H2009,0.178,0.217,0.255,–,0.208,1.25,0.921,1.07,0.516,0.536,1.24,1.21,1.22,1.28,1.18,1.12,0.886,0.926,0.444,0.294
NCI-H2023,0.454,0.386,0.495,0.235,0.332,1.07,0.941,1.11,0.845,0.386,0.88,0.86,0.874,0.797,0.658,1.1,0.78,1.14,0.528,0.133
NCI-H2085,0.482,0.5,0.484,0.46,0.495,1.13,1.06,1.04,0.965,1.01,0.846,0.79,1.2,0.882,0.742,0.825,0.732,0.889,0.7,0.646
